# Experimental data: US20250066349A1 (Prothena Biosciences Limited, priority 2021, published 2025)
# Molecular target: DYRK1A (Homo sapiens (Human), UniProt Q13627)
# Test: DYRK1A Inhibition Assay
# Type: biochemical
# Settings: Compounds of Formula (I); DYRK1A 1 nM, ATP 20 μM, Ser/Thr 18 peptide 2 μM, 90 minutes; read-out: DYRK1 IC50
# Procedure: DYRK1A—Invitrogen #PV4105
# • Ser/Thr 18 peptide—Invitrogen #PR8227U • Phos-Ser/Thr 18 peptide—Invitrogen #PR8229U • Assay plate—PerkinElmer #6007279 • ATP—Sigma #A7699-5G • Development reagent A—Invitrogen #PR5194B • Development buffer—Invitrogen #PR4876B Compound preparation • 1. Test compounds were diluted to 1 mM in DMSO • 2. Stock was further diluted 3-fold using Echo platform • 3. 100 nL of DMSO into Columns 1 and 24 and 100 nL of compounds dilutions to Columns 2-23 in a plate.
# • 1. Add 5 μL enzyme & substrate mixture to each well in Column 2-23 and A24-H24 wells of the 384-well assay plate; • 2. Add 5 μL 0% Phosphorylation control to A1-H1 and I24-P24 wells of the assay plate; • 3. Add 5 μL 100% Phosphorylation control to I1-P1 wells of the assay plate; • 4. Spin the assay plate (1000 rpm, 1 minute @23° C.); • 5. Incubate enzyme with compounds for 15 minutes at 23° C.; • 6. Add 5 μL ATP solution to each well of the assay plate; • 7. Spin the plate (1000 rpm, 1 minute @23° C.); • 8. Incubate the assay plate for 90 minutes at 23° C.; • 9. Add 10 μL Development reagent A to each well of the assay plate; • 10. Centrifuge the plate at 1000 rpm about 15 seconds and seal a film over assay plate. Incubate the assay plate for 30 minutes at 23° C. • 11. Read assay plates on Envision (see Tables A-D).
# Final Compound Concentrations
# • Assay buffer: 50 mM Hepes pH7.5, 10 mM MgCl2, 1 mM EDTA, 0.01% Brij-35 • DYRK1A: 1 nM • ATP: 20 μM • Ser/Thr 18 peptide: 2 μM • Reaction time: 90 minutes
row,Compound,IC50 [nM]
1,OCc1ccc2c(cnc3[nH]cc(-c4ccc(F)cc4)c32)c1 [Compound 5],10 to 100
2,"O=C(O)C1CC(c2c[nH]c3ncc4ncccc4c23)C1 (stereo not shown) [Compound 34, 3-(3H-pyrrolo[3,2-f][1,7]naphthyridin-1-yl)cyclobutane-1-carboxylic acid]",100 to 1000
3,"O=C(O)[C@H]1C[C@@H](c2c[nH]c3ncc4cccnc4c32)C1 [Compound 36, (1s,3s)-3-(7H-pyrrolo[2,3-h][1,6]naphthyridin-9-yl)cyclobutane-1-carboxylic acid]",100 to 1000
4,"O=C(O)[C@H]1C[C@H](c2c[nH]c3ncc4cccnc4c32)C1 [Compound 37, (1r,3r)-3-(7H-pyrrolo[2,3-h][1,6]naphthyridin-9-yl)cyclobutane-1-carboxylic acid]",10 to 100
5,"CN1CCN(c2nccc3c2cnc2[nH]cc(-c4ccncc4)c23)CC1 [Compound 43, 6-(4-methylpiperazin-1-yl)-1-(pyridin-4-yl)-3H-pyrrolo[2,3-c][2, 7]naphthyridine]",10 to 100
6,"CN1CCC(c2nccc3c2cnc2[nH]cc(-c4ccncc4)c23)CC1 [Compound 44, 6-(1-methylpiperidin-4-yl)-1-(pyridin-4-yl)-3H-pyrrolo[2,3-c][2, 7]naphthyridine]",100 to 1000

# Continued, values first:
row,IC50 [nM],Compound
1,10 to 100,"Cn1cc(-c2ccc3cnc4[nH]cc(-c5ccc(F)cc5)c4c3c2)cn1 [Compound 2, 1-(4-fluorophenyl)-8-(1-methyl-1H-pyrazol-4-yl)-3H-pyrrolo[2,3-c]isoquinoline]"
2,10 to 100,"Fc1ccc(-c2c[nH]c3ncc4ccc(-c5cn[nH]c5)cc4c23)cc1 [Compound 3, 1-(4-fluorophenyl)-8-(1H-pyrazol-4-yl)-3H-pyrrolo[2,3-c]isoquinoline]"
3,10 to 100,"Cn1cc(-c2ccc3cnc4[nH]ncc4c3c2)cn1 [Compound 7, 8-(1-methyl-1H-pyrazol-4-yl)-3H-pyrazolo[3,4-c]isoquinoline]"
4,100 to 1000,"CN1CCN(C(=O)c2c[nH]c3ncc4ccc(-c5cccnc5)cc4c23)CC1 [Compound 10, (4-methylpiperazin-1-yl)(8-(pyridin-3-yl)-3H-pyrrolo[2,3-c]isoquinolin-1-yl)methanone]"
5,100 to 1000,"O=c1[nH]c2ncc3ccc(-c4cccnc4)cc3c2n1Cc1cccnc1 [Compound 11, 8-(pyridin-3-yl)-1-(pyridin-3-ylmethyl)-1,3-dihydro-2H-imidazo[4,5-c]isoquinolin-2-one]"
6,10 to 100,"Cn1cc(-c2ccc3cnc4[nH]cc(C(=O)N5CCNCC5)c4c3c2)cn1 [Compound 12, (8-(1-methyl-1H-pyrazol-4-yl)-3H-pyrrolo[2,3-c]isoquinolin-1-yl)(piperazin-1-yl)methanone]"
7,10 to 100,"Cn1cc(-c2ccc3cnc4[nH]c(=O)n(C5CC(O)C5)c4c3c2)cn1 (stereo not shown) [Compound 21, 1-(3-hydroxycyclobutyl)-8-(1-methyl-1H-pyrazol-4-yl)-1,3-dihydro-2H-imidazo[4,5-c]isoquinolin-2-one]"
8,100 to 1000,"COC1CC(n2c(=O)[nH]c3ncc4ccc(-c5cnn(C)c5)cc4c32)C1 (stereo not shown) [Compound 22, 1-(3-methoxycyclobutyl)-8-(1-methyl-1H-pyrazol-4-yl)-1,3-dihydro-2H-imidazo[4,5-c]isoquinolin-2-one]"
9,≤ 10,CNC(=O)C1CCC(c2c[nH]c3ncc4ccc(-c5cnn(C)c5)cc4c23)CC1 (stereo not shown) [Compound 27]
10,≤ 10,"Cn1cc(-c2ccc3cnc4[nH]cc(C5CCC(C(=O)N6CCNCC6)CC5)c4c3c2)cn1 (stereo not shown) [Compound 28, (4-(8-(1-methyl-1H-pyrazol-4-yl)-3H-pyrrolo[2,3-c]isoquinolin-1-yl)cyclohexyl)(piperazin-1-yl)methanone]"
11,≤ 10,"Cn1cc(-c2ccc3cnc4[nH]cc(C5CCN(S(C)(=O)=O)CC5)c4c3c2)cn1 [Compound 29, 8-(1-methyl-1H-pyrazol-4-yl)-1-(1-(methylsulfonyl)piperidin-4-yl)-3H-pyrrolo[2,3-c]isoquinoline]"
12,100 to 1000,"Cn1c(=O)[nH]c2ncc(-c3ccc4cnsc4c3)cc21 [Compound 30, 6-(benzo[d]isothiazol-6-yl)-1-methyl-1,3-dihydro-2H-imidazo[4,5-b]pyridin-2-one]"
13,100 to 1000,"O=c1[nH]c2ncc(-c3ccc4cnsc4c3)cc2n1C1CCC1 [Compound 31, 6-(benzo[d]isothiazol-6-yl)-1-cyclobutyl-1,3-dihydro-2H-imidazo[4,5-b]pyridin-2-one]"
14,100 to 1000,"O=C(O)[C@H]1C[C@@H](c2c[nH]c3ncc4ccccc4c32)C1 [Compound 32, (1s,3s)-3-(3H-pyrrolo[2,3-c]isoquinolin-1-yl)cyclobutane-1-carboxylic acid]"
15,100 to 1000,"O=C(O)[C@H]1C[C@H](c2c[nH]c3ncc4ccccc4c32)C1 [Compound 33, (1r,3r)-3-(3H-pyrrolo[2,3-c]isoquinolin-1-yl)cyclobutane-1-carboxylic acid]"
16,100 to 1000,"O=C(O)C1CC(c2c[nH]c3ncc4ccncc4c23)C1 (stereo not shown) [Compound 35, 3-(7H-pyrrolo[2,3-c][2,6]naphthyridin-9-yl)cyclobutane-1-carboxylic acid]"
17,10 to 100,"Cn1cc(-c2ccc3cnc4c(c(C5CCC5)cn4C)c3c2)cn1 [Compound 38, 1-cyclobutyl-3-methyl-8-(1-methyl-1H-pyrazol-4-yl)-3H-pyrrolo[2,3-c]isoquinoline]"
18,≤ 10,"Cn1cc(-c2ccc3cnc4[nH]c(C5CCNCC5)cc4c3c2)cn1 [Compound 39, 8-(1-methyl-1H-pyrazol-4-yl)-2-(piperidin-4-yl)-3H-pyrrolo[2,3-c]isoquinoline]"
19,≤ 10,"CN1CCC(c2cc3c(ncc4ccc(-c5cnn(C)c5)cc43)[nH]2)CC1 [Compound 40, 8-(1-methyl-1H-pyrazol-4-yl)-2-(1-methylpiperidin-4-yl)-3H-pyrrolo[2,3-c]isoquinoline]"
20,≤ 10,"Cc1c(C2CCNCC2)[nH]c2ncc3ccc(-c4cnn(C)c4)cc3c12 [Compound 41, 1-methyl-8-(1-methyl-1H-pyrazol-4-yl)-2-(piperidin-4-yl)-3H-pyrrolo[2,3-c]isoquinoline]"
21,≤ 10,"Cc1c(C2CCN(C)CC2)[nH]c2ncc3ccc(-c4cnn(C)c4)cc3c12 [Compound 42, 1-methyl-8-(1-methyl-1H-pyrazol-4-yl)-2-(1-methylpiperidin-4-yl)-3H-pyrrolo[2,3-c]isoquinoline]"
22,10 to 100,"Cn1cc(-c2ccc3cnc4c(c3c2)c([C@H]2CC[C@@H](C(=O)O)CC2)cn4C)cn1 [Compound 46, 4-(3-methyl-8-(1-methyl-1H-pyrazol-4-yl)-3H-pyrrolo[2,3-c]isoquinolin-1-yl)cyclohexane-1-carboxylic acid]"
23,≤ 10,"Cn1cc(-c2ccc3cnc4c(c3c2)c([C@H]2CC[C@H](C(=O)O)CC2)cn4C)cn1 [Compound 47, 4-(3-methyl-8-(1-methyl-1H-pyrazol-4-yl)-3H-pyrrolo[2,3-c]isoquinolin-1-yl)cyclohexane-1-carboxylic acid]"

# Same assay, conditions: Compounds of Formula (II); DYRK1A 1 nM, ATP 20 μM, Ser/Thr 18 peptide 2 μM, 90 minutes; read-out: DYRK1 IC50
row,IC50 [nM],Compound
1,100 to 1000,CN1CCC(c2cc3c(-c4cc5scnc5cn4)ccnc3[nH]2)CC1 [Compound 4]
2,10 to 100,CN1CCC(c2nc3c(-c4cn(C)c5cnccc45)ccnc3[nH]2)CC1 [Compound 5]

# Same assay, conditions: Compounds of Formula (III); DYRK1A 1 nM, ATP 20 μM, Ser/Thr 18 peptide 2 μM, 90 minutes; read-out: DYRK1 IC50
row,IC50 [nM],Compound
1,50 to 200,CN1CCC(C(=O)Nc2ncc(-c3ccc4ncoc4c3)s2)CC1 [Compound 1]
2,200 to 1000,CN1CCC(C(=O)Nc2ncc(-c3ccc4sncc4c3)s2)CC1 [Compound 5]
3,50 to 200,Cn1ncc2ccc(-c3cnc(C#CC4CCNCC4)s3)cc21 [Compound 7]
4,50 to 200,CN1CCC(C#Cc2ncc(-c3ccc4cnn(C)c4c3)s2)CC1 [Compound 8]

# Same assay, conditions: Compounds of Formula (IV); DYRK1A 1 nM, ATP 20 μM, Ser/Thr 18 peptide 2 μM, 90 minutes; read-out: DYRK1 IC50
row,IC50 [nM],Compound
1,1000 to 5000,O=c1oc2cc3cnccc3cc2n1CCc1nc2ccccc2[nH]1 [Compound 4]
2,500 to 1000,Cn1ncc2cc3[nH]c(=O)n(-c4cccc(O)c4)c3cc21 [Compound 5]
3,500 to 1000,CC(=O)N1CCc2c(cnc3[nH]cc(-c4ccncc4)c23)C1 [Compound 7]
4,1000 to 5000,CC(=O)N1CCc2c(cnc3[nH]cc(-c4cccnc4)c23)C1 [Compound 8]
5,1000 to 5000,CC(=O)N1CCc2c(cnc3[nH]cc(-c4cccc(Cl)c4)c23)C1 [Compound 10]
6,1000 to 5000,O=c1[nH]c2cc3c(cc2o1)[nH]c(=O)n3-c1cccc(O)c1 [Compound 11]
7,1000 to 5000,COc1cc(-c2ccc3c4c([nH]c(=O)c3c2)CN(C)CC4)ccc1F [Compound 12]
8,1000 to 5000,CN1CCc2c([nH]c(=O)c3cc(-c4ccnc5c4CCO5)ccc23)C1 [Compound 13]
